# How the values were obtained:
# [1] = Unbound fraction in serum of patient with severe cirrhosis (5 patients) at 500 mg, iv by Sarcina lutea based bioassay; format: ADME, organism-based; conditions: human
# [2] = Volume of distribution at steady state in patient with severe cirrhosis (5 patients) at 500 mg, iv by Sarcina lutea based bioassay; format: ADME, organism-based; conditions: human, in vivo, read-out: Vdss
# [3] = Total drug clearance in patient with severe cirrhosis (5 patients) at 500 mg, iv by Sarcina lutea based bioassay; format: ADME, organism-based; conditions: human, in vivo
# [4] = Unbound fraction in serum of healthy human subjects (6 subjects) at 500 mg, iv by Sarcina lutea based bioassay; format: ADME, organism-based
# Homo sapiens [5] = test: Unbound non-renal drug clearance in healthy human subjects (6 subjects) at 500 mg, iv by Sarcina lutea based bioassay; format: ADME, organism-based; conditions: in vivo
# [6] = Terminal half life in patient with severe cirrhosis (5 patients) at 500 mg, iv by Sarcina lutea based bioassay; format: ADME, organism-based; conditions: human, in vivo, read-out: beta t1/2 (converted)
# Homo sapiens [7] = test: Unbound renal drug clearance in patient with severe cirrhosis (5 patients) at 500 mg, iv by Sarcina lutea based bioassay; format: ADME, organism-based, Kidney; conditions: in vivo
# Homo sapiens [8] = test: Unbound drug clearance in patient with severe cirrhosis (5 patients) at 500 mg, iv by Sarcina lutea based bioassay; format: ADME, organism-based; conditions: in vivo
# [9] = Total drug clearance in healthy human subjects (6 subjects) at 500 mg, iv by Sarcina lutea based bioassay; format: ADME, organism-based; conditions: in vivo
# Homo sapiens [10] = test: Unbound renal drug clearance in healthy human subjects (6 subjects) at 500 mg, iv by Sarcina lutea based bioassay; format: ADME, organism-based, Kidney; conditions: in vivo
# [11] = Terminal half life in healthy human subjects (6 subjects) at 500 mg, iv by Sarcina lutea based bioassay; format: ADME, organism-based; conditions: in vivo, read-out: beta t1/2 (converted)
# Homo sapiens [12] = test: Unbound non-renal drug clearance in patient with severe cirrhosis (5 patients) at 500 mg, iv by Sarcina lutea based bioassay; format: ADME, organism-based; conditions: in vivo
# Homo sapiens [13] = test: Unbound drug clearance in healthy human subjects (6 subjects) at 500 mg, iv by Sarcina lutea based bioassay; format: ADME, organism-based; conditions: in vivo
# [14] = Volume of distribution at steady state in healthy human subjects (6 subjects) at 500 mg, iv by Sarcina lutea based bioassay; format: ADME, organism-based; conditions: in vivo, read-out: Vdss
smiles,measurement,setting,value
CC[C@H]1OC(=O)[C@H](C)[C@@H](O[C@H]2C[C@@](C)(OC)[C@@H](O)[C@H](C)O2)[C@H](C)[C@@H](O[C@@H]2O[C@H](C)C[C@H](N(C)C)[C@H]2O)[C@](C)(O)C[C@@H](C)C(=O)[C@H](C)[C@@H](O)[C@]1(C)O.O=C(O)[C@H](O)[C@@H](O)[C@H](O[C@@H]1O[C@H](CO)[C@@H](O)[C@@H](O)[C@H]1O)[C@H](O)CO,fraction unbound,[1],0.583
same,Vd,[2],85.5 L
same,clearance,[3],403 mL/min
same,fraction unbound,[4],0.305
same,CL free,Homo sapiens [5],98.6 L/h
same,half-life,[6],2.24 h
same,CL free,Homo sapiens [7],11.2 L/h
same,CL free,Homo sapiens [8],42.2 L/h
same,clearance,[9],570 mL/min
same,CL free,Homo sapiens [10],14.5 L/h
same,half-life,[11],1.36 h
same,CL free,Homo sapiens [12],31.6 L/h
same,CL free,Homo sapiens [13],113.2 L/h
same,Vd,[14],57.6 L
